Where a name gives a salt, the structure may show the parent alone.
Key:
CDK7/CyclinH/Mat1 = target: T1, CDK7/CyclinH/Mat1 (Homo sapiens, UniProt P50613); assay: Lance Ultra KinaSelect Assay, CDK7; assay type: biochemical; conditions: ATP 25 μM, read-out: Inhibition (IC50) CDK7
T1 construct: purchased Carna Biosciences
Protocol: This protocol describes how the Lance Ultra KinaSelect Assay was performed to determine half maximal inhibitory concentration (IC50) of compounds of general formula (I) and CDK/Cyclin complexes. The principle behind this enzymatic assay is based upon the phosphorylation of the ULight-Peptide Substrat. It is detected by using a specific EU-labeled anti-phospho peptide antibody. The binding of the Eu-labeled anti-phospho peptide antibody to the phosphorylated U Light labeled peptide gives rise to a FRET-signal. Binding of an inhibitor to the kinase prevents phosphorylation of the ULight-MBP Substrat, resulting in a loss of FRET.
The compounds of general formula (I) summarized in Table 5 were diluted from a 10 mM DMSO stock solution 1:10 in a total volume of 15 μL DMSO. This compound predilution was then serial diluted 1:3 over 8 steps in DMSO and briefly spun down. Each compound solution was now diluted 1:20 in Enzymatic Buffer (HEPES: 50 mM, pH: 7.5; MgCl2: 10 mM; EGTA: 1 mM; DTT: 2 mM; Tween-20: 0.01%), mixed thoroughly and spun down. For every sample, 2 μL of the diluted compound were mixed with 6 μL CDK/Cyclin/Substrat solution and […] in a well of a small volume 384 well plate (Corning Incorporated, Corning, N.Y., USA; order no. 3673). […] For positive controls, in each well 2 μL of DMSO solution (1% final DMSO assay concentration) was mixed with 6 μL CDK/Cyclin/Substrat (appropriate final concentration see Table 3) and 2 μL Tracer ATP solution (appropriate final concentration see Table 3). Positive and negative controls were calculated from at least 8 different sample wells. The 384 well plates were mixed in a Teleshaker plate mixer (Beckman Coulter, Brea, Calif., USA) at 2000 rpm for 40 sec, and incubated for 1 h at room temperature. Before reading, 10 μL detection buffer (Lance Detection Buffer 1×; EDTA: […]; Eu-Anti-P-MBP: see Table 3) was added. The FRET signal was measured at 340 nm excitation, 665 nm and 615 nm emission (for the kinase tracer and LanthaScreen Eu-AB, respectively) with an Envision spectrophotometer (Perkin Elmer, Waltham, Mass., USA) with 50 μs delay and 300 μs integration time. IC50 values were determined from the sigmoidal dose response curves with the software Quattro Workflow (Quattro GmbH, Munich, Germany).

CDK2/CycE = target: T2, CDK2/CycE (Homo sapiens, UniProt P24941); assay: CDK2/CycE kinase assay (TR-FRET); assay type: biochemical; conditions: ATP 10 μM
T2 construct: GST; purchased ProQinase GmbH (Freiburg, Germany); host or cells: insect cells (Sf-9)
Excerpt: CDK2/CycE-inhibitory activity of compounds of the present invention was quantified employing the CDK2/CycE TR-FRET assay as described in the following paragraphs.
Recombinant fusion proteins of glutathione S-transferase (GST) and human CDK2 and of GST and human CycE, expressed in insect cells (Sf-9) and purified by glutathion-sepharose affinity chromatography, were purchased from ProQinase GmbH (Freiburg, Germany). A biotinylated peptide biotin-Ttds-[…] (C-terminus in amide form), which can be purchased from e.g the company JERINI Peptide Technologies (Berlin, Germany), was used as a substrate for the kinase reaction.
For the assay, 50 nl of a 100-fold concentrated solution of the test compound in DMSO was pipetted into a well of a black low-volume 384-well microtiter plate (Greiner Bio-One, Frickenhausen, Germany), 2 μl of a solution of CDK2/CycE in aqueous assay buffer [50 mM Tris/HCl pH 8.0], 10 mM MgCl2, 1.0 mM dithiothreitol, 0.1 mM sodium ortho-vanadate, 0.01% (v/v) Nonidet-P40 (Sigma)] were added. The mixture was incubated at 22° C. for 15 min to allow pre-binding of the test compounds to the enzyme before the start of the kinase reaction. […] The resulting mixture was incubated at 22° C. for 25 minutes. The concentration of CDK2/CycE was adjusted depending on the activity of the enzyme lot and was chosen appropriately for measurements in the linear range of the assay. Typical concentrations were in the range of 130 ng/ml. The reaction was stopped by the addition of 5 μl of a solution of TR-FRET detection reagents (0.2 μM streptavidine-XL and 1 nM anti-RB(pSer807/pSer811)-antibody from BD Pharmingen [#558389] and 1.2 nM LANCE EU-W1024 labeled anti-mouse IgG antibody [Perkin-Elmer, product no. AD0077]) in an aqueous EDTA-solution (100 mM EDTA, 0.2% (w/v) bovine serum albumin in 100 mM HEPES/NaOH, pH 7.0).
The resulting mixture was incubated at 22° C. for one hour to allow the formation of a complex between the phosphorylated biotinylated peptide and the detection reagents. Subsequently, the amount of phosphorylated substrate was evaluated by measuring the resonance energy transfer from the Eu-chelate to the streptavidine-XL. Therefore, the fluorescence emissions at 620 nm and 665 nm after excitation at 350 nm were measured in a high time-resolved fluorometry (HTRF) reader, e.g. a Rubystar (BMG Labtechnologies, Offenburg, Germany) or a Viewlux (Perkin-Elmer). The ratio of the emissions at 665 nm and at […] was taken as a measure for the amounts of phosphorylated substrate. The data were normalised, i.e. enzyme reaction without inhibitor corresponds to 0% inhibition, and all other assay components in the absence of the enzyme correspond to 100% inhibition. IC50 values were calculated by a 4-parameter fit using in-house software.

T1 sequence (P50613 whole entry): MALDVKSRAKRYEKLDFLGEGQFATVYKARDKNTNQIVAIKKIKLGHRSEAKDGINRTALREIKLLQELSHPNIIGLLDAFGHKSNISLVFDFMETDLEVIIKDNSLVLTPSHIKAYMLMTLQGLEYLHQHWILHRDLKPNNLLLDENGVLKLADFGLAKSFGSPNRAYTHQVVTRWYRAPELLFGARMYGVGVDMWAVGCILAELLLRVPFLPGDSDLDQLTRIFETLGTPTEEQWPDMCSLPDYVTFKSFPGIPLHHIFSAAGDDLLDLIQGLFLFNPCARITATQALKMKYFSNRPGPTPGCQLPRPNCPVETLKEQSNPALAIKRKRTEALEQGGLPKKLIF
T1 sequence (P51946 whole entry partner): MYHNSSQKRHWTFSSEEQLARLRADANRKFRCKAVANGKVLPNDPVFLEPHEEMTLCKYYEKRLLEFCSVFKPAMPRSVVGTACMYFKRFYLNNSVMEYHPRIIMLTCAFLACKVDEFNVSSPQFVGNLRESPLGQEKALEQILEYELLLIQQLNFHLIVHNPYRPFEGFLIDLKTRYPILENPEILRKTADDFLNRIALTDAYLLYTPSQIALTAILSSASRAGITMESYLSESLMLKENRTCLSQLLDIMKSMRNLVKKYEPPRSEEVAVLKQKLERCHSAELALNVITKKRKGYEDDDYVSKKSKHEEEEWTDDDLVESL
T1 sequence (P51948 whole entry partner): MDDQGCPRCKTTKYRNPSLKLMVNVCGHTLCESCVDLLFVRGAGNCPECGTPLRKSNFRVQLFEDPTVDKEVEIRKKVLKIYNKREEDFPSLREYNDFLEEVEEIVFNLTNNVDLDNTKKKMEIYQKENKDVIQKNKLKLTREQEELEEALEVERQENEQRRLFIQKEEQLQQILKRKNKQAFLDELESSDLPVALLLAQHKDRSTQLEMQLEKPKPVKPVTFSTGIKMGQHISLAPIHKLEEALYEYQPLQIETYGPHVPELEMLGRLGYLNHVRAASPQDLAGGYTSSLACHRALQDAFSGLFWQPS

Compound | IC50 (CDK7/CyclinH/Mat1) [µM] | further results
COc1ccccc1-c1ncnc(Nc2cccc(CS(N)(=O)=O)c2)n1 [B1′, 3-[(4-(2-Methoxyphenyl)-1,3,5-triazin-2-yl)amino]benzenemethanesulfonamide trifluoroacetic acid salt] | > 10 | 
COc1cc(F)ccc1-c1ncnc(Nc2cccc(CS(N)(=O)=O)c2)n1 [B2′, 1-(3-{[4-(4-fluoro-2-methoxyphenyl)-1,3,5-triazin-2-yl]amino}phenyl)methanesulfonamide hydrochloride] |  | IC50 (CDK2/CycE; values in nM): 670 nM
COc1cc(F)ccc1-c1ncnc(Nc2cccc(CS(N)(=O)=O)c2)n1 [B2″, 1-(3-{[4-(4-fluoro-2-methoxyphenyl)-1,3,5-triazin-2-yl]amino}phenyl)methanesulfonamide trifluoroacetic acid salt] | > 10 | 
NS(=O)(=O)Cc1cccc(Nc2ncnc(-c3ccccc3OCc3ccccc3)n2)c1 [B13′, 3-[(4-(2-Benzyloxyphenyl)-1,3,5-triazin-2-yl)amino]benzenemethanesulfonamide trifluoroacetic acid salt] | > 10 | 
COc1ccccc1-c1ncnc(Nc2cccc(S(N)(=O)=O)c2)n1 [C1′, 3-[(4-(2-Methoxyphenyl)-1,3,5-triazin-2-yl)amino]benzenesulfonamide trifluoroacetic acid salt] | > 10 | 
COc1ccccc1-c1ncnc(Nc2cccc(CS(N)(=O)=O)c2)n1 [Compound B1, 3-[(4-(2-Methoxyphenyl)-1,3,5-triazin-2-yl)amino]benzenemethanesulfonamide] |  | IC50 (CDK2/CycE; values given in μM): 1800 nM
COc1cc(F)ccc1-c1ncnc(Nc2cccc(CS(N)(=O)=O)c2)n1 [Compound B2, 3-[(4-(4-Fluoro-2-methoxyphenyl)-1,3,5-triazin-2-yl)amino]benzenemethanesulfonamide] |  | IC50 (CDK2/CycE; values in nM): 930 nM
COc1cccc(F)c1-c1ncnc(Nc2cccc(CS(N)(=O)=O)c2)n1 [Compound B4, 3-[(4-(6-Fluoro-2-methoxyphenyl)-1,3,5-triazin-2-yl)amino]benzenemethanesulfonamide] | > 10 | 
COc1cc(Cl)ccc1-c1ncnc(Nc2cccc(CS(N)(=O)=O)c2)n1 [Compound B6, 3-[(4-(4-Chloro-2-methoxyphenyl)-1,3,5-triazin-2-yl)amino]benzenemethanesulfonamide] | > 10 | 
CCOc1ccccc1-c1ncnc(Nc2cccc(CS(N)(=O)=O)c2)n1 [Compound B12, 3-[(4-(2-Ethoxyphenyl)-1,3,5-triazin-2-yl)amino]benzenemethanesulfonamide] | > 10 | 
NS(=O)(=O)Cc1cccc(Nc2ncnc(-c3ccccc3OCc3ccccc3)n2)c1 [Compound B13, 3-[(4-(2-Benzyloxyphenyl)-1,3,5-triazin-2-yl)amino]benzenemethanesulfonamide] |  | IC50 (CDK2/CycE; values in nM): 380 nM
NS(=O)(=O)Cc1cccc(Nc2ncnc(-c3ccccc3Oc3ccccc3)n2)c1 [Compound B14, 1-(3-{[4-(2-phenoxyphenyl)-1,3,5-triazin-2-yl]amino}phenyl)methanesulfonamide] |  | IC50 (CDK2/CycE; values given in μM): 4000 nM
NS(=O)(=O)Cc1cccc(Nc2ncnc(-c3ccccc3OCc3ccncc3)n2)c1 [Compound B16, 3-[(4-(2-((4-Pyridinyl)methoxy)phenyl)-1,3,5-triazin-2-yl)amino]benzenemethanesulfonamide] | > 10 | 
COc1ccccc1-c1ncnc(Nc2cccc(CCS(N)(=O)=O)c2)n1 [Compound D1, 2-[3-((4-(2-Methoxyphenyl)-1,3,5-triazin-2-yl)amino)phenyl]ethanesulfonamide] | > 10 | 
COc1cc(F)ccc1-c1ncnc(Nc2cccc(CCS(N)(=O)=O)c2)n1 [Compound D2, 2-[3-((4-(4-Fluoro-2-methoxyphenyl)-1,3,5-triazin-2-yl)amino)phenyl]ethanesulfonamide] | > 10 | 
COc1ccccc1-c1ncnc(Nc2cccc(NS(C)(=O)=O)c2)n1 [Compound K1, N-[3-((4-(2-Methoxyphenyl)-1,3,5-triazin-2-yl)amino)phenyl]-methanesulfonamide] | > 10 | 
CCCS(=O)(=O)Nc1cccc(Nc2ncnc(-c3ccccc3OC)n2)c1 [Compound L1, N-[3-((4-(2-Methoxyphenyl)-1,3,5-triazin-2-yl)amino)phenyl]-propanesulfonamide] | > 10 | 
CC(C)Oc1cc(F)ccc1-c1ncnc(Nc2cccc(CS(N)(=O)=O)c2)n1 [Compound U2, 1-[3-({4-[4-fluoro-2-(propan-2-yloxy)phenyl]-1,3,5-triazin-2-yl}amino)phenyl]methanesulfonamide] |  | IC50 (CDK2/CycE; values in nM): 880 nM
N#Cc1cc(F)ccc1-c1ncnc(Nc2cccc(CS(N)(=O)=O)c2)n1 [Compound U3, 1-(3-{[4-(2-cyano-4-fluorophenyl)-1,3,5-triazin-2-yl]amino}phenyl)methanesulfonamide] |  | IC50 (CDK2/CycE; values given in μM): 14000 nM
COc1cc(F)c(F)cc1-c1ncnc(Nc2cccc(CS(N)(=O)=O)c2)n1 [Compound U7, 1-(3-{[4-(4,5-difluoro-2-methoxyphenyl)-1,3,5-triazin-2-yl]amino}phenyl)methanesulfonamide] |  | IC50 (CDK2/CycE; values in nM): 930 nM
COc1cc(F)ccc1-c1ncnc(Nc2ccc(S(C)(=O)=O)nc2)n1 [Compound U8, 4-(4-fluoro-2-methoxyphenyl)-N-[6-(methylsulfonyl)pyridin-3-yl]-1,3,5-triazin-2-amine] |  | IC50 (CDK2/CycE; values in nM): 170 nM
CNS(=O)(=O)Cc1cccc(Nc2cc(-c3ccccc3OC)ncn2)c1 [Ref2, C-{3-[6-(2-Methoxy-phenyl)-pyrimidin-4-ylamino]-phenyl}-N-methyl methanesulfonamide, reference compound] |  | IC50 (CDK2/CycE; values given in μM): 1600 nM
COc1ccccc1-c1cc(Nc2cccc(CS(=O)(=O)N(C)C)c2)ncn1 [Ref4, C-{3-[6-(2-Methoxy-phenyl)-pyrimidin-4-ylamino]-phenyl}-N,N-dimethylmethanesulfonamide, reference compound] |  | IC50 (CDK2/CycE; values given in μM): 2700 nM

From patent publication US20130079345A1, “[…] ACTIVE DISUBSTITUTED TRIAZINE DERIVATIVES” (BAYER INTELLECTUAL PROPERTY GMBH, priority 2010, published 2013)
